IC50 data for five molecules are collected here from patent US20260022142A1, “MACROCYCLIC IMMUNOMODULATORS” (Bristol-Myers Squibb Company, priority 2022, published 2026).

Usually IC50 stands for the midpoint of a concentration-inhibition curve.

Bridge positions count the residues as written; N and C are the ends. Square brackets hold non-standard residues; d marks the D form. Peptide text beside a SMILES is read from it. * marks the point of attachment. Phe(4-COOH) = N[C@@H](Cc1ccc(C(=O)O)cc1)C(=O)O; Bip = N[C@@H](Cc1ccc(-c2ccccc2)cc1)C(=O)O; 4Pal = N[C@@H](Cc1ccncc1)C(=O)O; Cha = N[C@@H](CC1CCCCC1)C(=O)O; Carboxymethyl = O=C(O)C*; Orn = NCCC[C@H](N)C(=O)O; Aun = NCCCCCCCCCCC(=O)O; Dab = NCC[C@H](N)C(=O)O; Dap = NC[C@H](N)C(=O)O; AEEA = NCCOCCOCC(=O)O

In this test the target is T1, PD-1/PD-L1 interaction (PE-labeled human PD-L1-Ig binding to Jurkat cell line over-expressing human PD-1) (Homo sapiens, UniProt Q15116).
T1 construct: expressed in transfected cells; host or cells: Jurkat
T1 sequence (Q15116 25-288): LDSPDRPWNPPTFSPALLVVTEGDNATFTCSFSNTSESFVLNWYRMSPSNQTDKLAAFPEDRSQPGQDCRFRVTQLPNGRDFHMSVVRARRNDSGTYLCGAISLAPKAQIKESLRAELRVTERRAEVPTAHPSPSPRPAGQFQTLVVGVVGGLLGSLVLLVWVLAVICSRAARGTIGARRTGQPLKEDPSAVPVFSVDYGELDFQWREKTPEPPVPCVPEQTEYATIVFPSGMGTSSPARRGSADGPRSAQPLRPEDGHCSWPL
The experiment in a line: Jurkat-PD-1 Cell Binding High-Content Screening Assay (CBA). Particulars: Jurkat cell line over-expressing human PD-1; PE-labeled PD-L1-Ig 20 nM final; read-out: Jurkat hPD1-PDL1 IC50. It is filed as cell-based. In outline: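 Human PD-L1-Ig carrying a covalent PE label on its Ig tag serves as the probe, applied at 20 nM final to compound-treated (2 h, 37° C) Jurkat-hPD-1 cells in medium with 10% fetal calf serum. After one hour, fixation and nuclear staining precede high-content image analysis.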
In the case of `CC(C)C[C@H]1NC(=O)[C@H](CCCN)NC(=O)[C@H](C(C)C)NC(=O)[C@H](Cc2ccc(-c3ccccc3)cc2)NC(=O)[C@H](C(C)C)NC(=O)[C@H](Cc2c[nH]c3ccccc23)NC(=O)[C@H](CC(=O)O)NC(=O)[C@H](Cc2ccc(OCC(=O)O)cc2)NC(=O)[C@H](Cc2ccc(OCC(=O)O)cc2)NC(=O)CSC[C@@H](C(=O)NCC(=O)NCCOCCOCC(=O)N[C@@H](CCCN)C(=O)NCCCCCCCCCCC(=O)O)NC(=O)[C@H](CCCN)NC(=O)[C@H](C(C)C)NC(=O)[C@H](CC2CCCCC2)NC(=O)[C@H](CCN)NC1=O` [Compound 3229] ({CH2CO}-Y(Carboxymethyl)Y(Carboxymethyl)DWV[Bip]V[Orn][dL][Dab][Cha]V[Orn]CG[AEEA][Orn][Aun]-OH; thioether N-14), the IC50 came to 6.9 nM.

`CC(C)C[C@H]1NC(=O)[C@H](CCCN)NC(=O)[C@H](C(C)C)NC(=O)[C@H](Cc2ccc(-c3ccccc3)cc2)NC(=O)[C@H](C(C)C)NC(=O)[C@H](Cc2c[nH]c3ccccc23)NC(=O)[C@H](CC(=O)O)NC(=O)[C@H](Cc2ccc(OCC(=O)O)cc2)NC(=O)[C@H](CCCNC(=N)N)NC(=O)CSC[C@@H](C(=O)NCC(=O)NCCOCCOCC(=O)N[C@@H](CCCN)C(=O)NCCCCCCCCCCC(=O)O)NC(=O)[C@H](CO)NC(=O)[C@H](C(C)C)NC(=O)[C@H](CC2CCCCC2)NC(=O)[C@H](CCN)NC1=O` [Compound 3230] ({CH2CO}-RY(Carboxymethyl)DWV[Bip]V[Orn][dL][Dab][Cha]VSCG[AEEA][Orn][Aun]-OH; thioether N-14): the IC50 was determined as 8.9 nM.

For `CC(C)C[C@H]1NC(=O)[C@H](CCCN)NC(=O)[C@H](C(C)C)NC(=O)[C@H](Cc2ccc(-c3ccccc3)cc2)NC(=O)[C@H](C(C)C)NC(=O)[C@H](Cc2c[nH]c3ccccc23)NC(=O)[C@H](CC(=O)O)NC(=O)[C@H](Cc2ccc(C(=O)O)cc2)NC(=O)[C@H](CCCNC(=N)N)NC(=O)CSC[C@@H](C(=O)NCC(=O)NCCOCCOCC(=O)N[C@@H](CCCN)C(=O)NCCCCCCCCCCC(=O)O)NC(=O)[C@H](CO)NC(=O)[C@H](C(C)C)NC(=O)[C@H](CC2CCCCC2)NC(=O)[C@H](CCN)NC1=O` [Compound 3231] ({CH2CO}-R[Phe(4-COOH)]DWV[Bip]V[Orn][dL][Dab][Cha]VSCG[AEEA][Orn][Aun]-OH; thioether N-14), the IC50 stood at 7.7 nM.

In the case of `CC(C)C[C@H]1NC(=O)[C@H](CCCN)NC(=O)[C@H](C(C)C)NC(=O)[C@H](Cc2ccc(-c3ccccc3)cc2)NC(=O)[C@H](C(C)C)NC(=O)[C@H](Cc2c[nH]c3ccccc23)NC(=O)[C@H](CC(=O)O)NC(=O)[C@H](Cc2ccncc2)NC(=O)[C@H](Cc2ccc(OCC(=O)O)cc2)NC(=O)CSC[C@@H](C(=O)NCC(=O)NCCOCCOCC(=O)N[C@@H](CCCN)C(=O)NCCCCCCCCCCC(=O)O)NC(=O)[C@H](CN)NC(=O)[C@H](C(C)C)NC(=O)[C@H](CC2CCCCC2)NC(=O)[C@H](CCN)NC1=O` [Compound 3232] ({CH2CO}-Y(Carboxymethyl)[4Pal]DWV[Bip]V[Orn][dL][Dab][Cha]V[Dap]CG[AEEA][Orn][Aun]-OH; thioether N-14), the IC50 was found to be 10.1 nM.

As for `CC(C)C[C@H]1NC(=O)[C@H](CCCN)NC(=O)[C@H](C(C)C)NC(=O)[C@H](Cc2ccc(-c3ccccc3)cc2)NC(=O)[C@H](C(C)C)NC(=O)[C@H](Cc2c[nH]c3ccccc23)NC(=O)[C@H](CC(=O)O)NC(=O)[C@H](Cc2ccc(OCC(=O)O)cc2)NC(=O)[C@H](Cc2ccncc2)NC(=O)CSC[C@@H](C(=O)NCC(=O)NCCOCCOCC(=O)N[C@@H](CCCN)C(=O)NCCCCCCCCCCC(=O)O)NC(=O)[C@H](CN)NC(=O)[C@H](C(C)C)NC(=O)[C@H](CC2CCCCC2)NC(=O)[C@H](CCN)NC1=O` [Compound 3233] ({CH2CO}-[4Pal]Y(Carboxymethyl)DWV[Bip]V[Orn][dL][Dab][Cha]V[Dap]CG[AEEA][Orn][Aun]-OH; thioether N-14), the concentration for half-maximal inhibition (IC50) was found to be 5.5 nM.
